In ChEMBL document CHEMBL1158856, “Bioactive constituents of Morus australis and Broussonetia papyrifera” (J Nat Prod, 1997):

How the values were obtained:
[1] = Antiproliferative activity against PDGF-stimulated rat VSMC assessed as inhibition of [3H]thymidine incorporation into DNA after 20 hrs by liquid scintillation counting relative to control; type: functional
Brain [2] = assay: Antioxidant activity in Wistar rat brain homogenate assessed as inhibition of Fe2+-induced TBARS formation by lipid peroxidation assay; type: functional, tissue-based
[3] = (§1) Antiproliferative activity against ADP-stimulated rat VSMC assessed as inhibition of [3H]thymidine incorporation into DNA after 20 hrs by liquid scintillation counting relative to control; type: functional
VSMC [4] = assay: as §1; type: functional
[5] = Antiplatelet activity against rabbit platelet assessed as inhibition of platelet-activating factor-induced platelet aggregation at 20 uM preincubated 3 mins before PAF challenge by turbidimetric method relative to control; type: functional, cell-based, Oryctolagus cuniculus; parameters: Activity: scale not given: the % may be the effect or the level left; settings: for IC50: Oryctolagus cuniculus, Platelet
[6] = (§2) Antiproliferative activity against 5-HT-stimulated rat VSMC assessed as inhibition of [3H]thymidine incorporation into DNA after 20 hrs by liquid scintillation counting relative to control; type: functional
VSMC [7] = assay: as §2; type: functional
[8] = (§3) Antiproliferative activity against FCS-stimulated rat VSMC assessed as inhibition of [3H]thymidine incorporation into DNA after 20 hrs by liquid scintillation counting relative to control; type: functional
VSMC [9] = assay: as §3; type: functional
[10] = Antiplatelet activity against rabbit platelet assessed as inhibition of collagen-induced platelet aggregation at 50 uM preincubated 3 mins before collagen challenge by turbidimetric method relative to control; type: functional, Oryctolagus cuniculus; parameters: scale not given: the % may be the effect or the level left
[11] = Antiplatelet activity against rabbit platelet assessed as inhibition of thrombin-induced platelet aggregation at 50 uM preincubated 3 mins before thrombin challenge by turbidimetric method relative to control; type: functional, Oryctolagus cuniculus; parameters: scale not given: the % may be the effect or the level left
[12] = Antiplatelet activity against rabbit platelet assessed as inhibition of arachidonic acid-induced platelet aggregation at 50 uM preincubated 3 mins before arachidonic acid challenge by turbidimetric method relative to control; type: functional, Oryctolagus cuniculus; parameters: scale not given: the % may be the effect or the level left
[13] = Antiplatelet activity against rabbit platelet assessed as inhibition of platelet-activating factor-induced platelet aggregation at 50 uM preincubated 3 mins before PAF challenge by turbidimetric method relative to control; type: functional, Oryctolagus cuniculus; parameters: scale not given: the % may be the effect or the level left
[14] = Antiplatelet activity against rabbit platelet assessed as inhibition of arachidonic acid-induced platelet aggregation at 20 uM preincubated 3 mins before arachidonic acid challenge by turbidimetric method relative to control; type: functional, Oryctolagus cuniculus; parameters: scale not given: the % may be the effect or the level left
[15] = Antiplatelet activity against rabbit platelet assessed as inhibition of platelet-activating factor-induced platelet aggregation at 100 uM preincubated 3 mins before PAF challenge by turbidimetric method relative to control; type: functional, Oryctolagus cuniculus; parameters: scale not given: the % may be the effect or the level left
[16] = Antiplatelet activity against rabbit platelet assessed as inhibition of collagen-induced platelet aggregation at 100 uM preincubated 3 mins before collagen challenge by turbidimetric method relative to control; type: functional, Oryctolagus cuniculus; parameters: scale not given: the % may be the effect or the level left
[17] = Antiplatelet activity against rabbit platelet assessed as inhibition of thrombin-induced platelet aggregation at 100 uM preincubated 3 mins before thrombin challenge by turbidimetric method; type: functional, Oryctolagus cuniculus; parameters: scale not given: the % may be the effect or the level left
[18] = Antiplatelet activity against rabbit platelet assessed as inhibition of arachidonic acid-induced platelet aggregation at 100 uM preincubated 3 mins before arachidonic acid challenge by turbidimetric method relative to control; type: functional, Oryctolagus cuniculus; parameters: scale not given: the % may be the effect or the level left
[19] = Antiplatelet activity against rabbit platelet assessed as inhibition of collagen-induced platelet aggregation at 300 uM preincubated 3 mins before collagen challenge by turbidimetric method relative to control; type: functional, Oryctolagus cuniculus; parameters: scale not given: the % may be the effect or the level left
[20] = Antiplatelet activity against rabbit platelet assessed as inhibition of thrombin-induced platelet aggregation at 300 uM preincubated 3 mins before thrombin challenge by turbidimetric method relative to control; type: functional, Oryctolagus cuniculus; parameters: scale not given: the % may be the effect or the level left
[21] = Antiplatelet activity against rabbit platelet assessed as inhibition of arachidonic acid-induced platelet aggregation at 300 uM preincubated 3 mins before arachidonic acid challenge by turbidimetric method relative to control; type: functional, Oryctolagus cuniculus; parameters: scale not given: the % may be the effect or the level left
[22] = Antiplatelet activity against rabbit platelet assessed as inhibition of platelet-activating factor-induced platelet aggregation at 300 uM preincubated 3 mins before PAF challenge by turbidimetric method relative to control; type: functional, Oryctolagus cuniculus; parameters: scale not given: the % may be the effect or the level left
Brain [23] = assay: Antioxidant activity in Wistar rat brain homogenate assessed as inhibition of Fe2+-induced TBARS formation at 100 uM by lipid peroxidation assay; type: functional, tissue-based

SMILES: CC(C)=CCc1c(-c2oc3c(CC=C(C)C)c(O)cc(O)c3c(=O)c2O)cc(O)c(O)c1CC=C(C)C [BROUSSOFLAVONOL E]
- inhibition (INH) [1]: 127%
- Activity (Brain [2]): Dose-dependent effect
- inhibition (INH) [3]: 0.4%
- Activity (VSMC [4]): Dose-dependent effect
- IC50 [5]: 1000 nM
- inhibition (INH) [6]: 0%
- Activity (VSMC [7]): Dose-dependent effect
- inhibition (INH) [8]: 0%
- Activity (VSMC [9]): Dose-dependent effect

SMILES: CC(=O)Oc1ccccc1C(=O)O [ASPIRIN]
- Activity [10]: 85.4%
- Activity [11]: 91.9%
- Activity [12]: 0%
- Activity [13]: 90.5%

SMILES: CC(C)=CCc1c(-c2ccc(O)cc2O)oc2c3c(cc(O)c2c1=O)OC(C)(C)C=C3 [MORUSIN]
- Activity [14]: 82.8%
- Activity [15]: 0%
- Activity [16]: 5.3%
- Activity [17]: 81.8%
- Activity [5]: 81.3%
- Activity [12]: 74.2%
- Activity [13]: 62.5%
- Activity [18]: 0%

SMILES: CC(C)=CCc1c(-c2ccc(O)cc2O)oc2c(CC=C(C)C)c(O)cc(O)c2c1=O [KUWANON C]
- Activity [19]: 5.5%
- Activity [14]: 83.9%
- Activity [15]: 26.9%
- Activity [20]: 54.8%
- Activity [5]: 78.8%
- Activity [21]: 0%
- Activity [22]: 0%
- Activity [12]: 60.2%
- Activity [13]: 67.6%
- Activity [18]: 5.9%

SMILES: CC(C)=CCc1cc2c(cc1O)O/C(=C\c1ccc(O)c(O)c1)C2=O [BROUSSOAURONE A]
- Activity (Brain [2]): Dose-dependent effect
- IC50 [5]: 1200 nM

SMILES: Cc1cc(C(C)(C)C)c(O)c(C(C)(C)C)c1 [BUTYLATED HYDROXYTOLUENE]
- inhibition (Brain [23]): 91.3%
- IC50 [5]: 14500 nM

SMILES: CC(C)=CCc1c([C@@H]2CCc3ccc(O)cc3O2)cc2c(c1O)OC(C)(C)C(O)C2O (stereo not given in full) [BROUSSOFLAVAN A]
- inhibition (INH) [1]: 258%
- Activity (Brain [2]): Dose-dependent effect
- inhibition (INH) [3]: 67%
- IC50 [5]: 2100 nM
- inhibition (INH) [6]: 19%
- inhibition (INH) [8]: 39.5%

SMILES: CC(C)=CCc1cc(-c2oc3c(CC=C(C)C)c(O)cc(O)c3c(=O)c2O)ccc1O [BROUSSOFLAVONOL F]
- inhibition (INH) [1]: 127%
- Activity (Brain [2]): Dose-dependent effect
- inhibition (INH) [3]: 7.8%
- Activity (VSMC [4]): Dose-dependent effect
- IC50 [5]: 2700 nM
- inhibition (INH) [6]: 0%
- Activity (VSMC [7]): Dose-dependent effect
- inhibition (INH) [8]: 0%
- Activity (VSMC [9]): Dose-dependent effect
